Measured values taken from patent US5084082A, “Soybean plants with dominant selectable trait for herbicide resistance” (priority 1990, dated 1992).
Counter-ions that a name gives are not always drawn.

Legend:
Assay type in all cases: in vivo, soybean
W4-4 = assay: Field use rate test (Table VII-B)
WM82 (Williams) = assay: Field use rate test (Table VII-B)
mutant line W20 = assay: Test B postemergence cross resistance test; conditions: Glycine max, post-emergence
Text: (§1) In the second postemergence test, six true-breeding resistant mutant lines (W4, W17, W19, W20, W23, and W28) were compared to Williams 82 for cross resistance to a broad range of ALS inhibitors including eight sulfonylureas and three imidazolinones. Two seeds were planted in each 10 cm pot and allowed to grow to the second trifoliolate stage. Pots were not thinned back if both plants were at the proper stage. For each of 11 herbicides, two rates (Table VII) were selected based on previous data: the low rate was expected to cause significant injury (but not death) to Williams 82 and the high rate was expected to severely injure or kill Williams 82. All but a few line x rate treatments were replicated twice.
In both postemergence tests, plants were returned to the greenhouse after treatment and provided with ample light, moisture, and nutrients to support healthy plant growth. Two to three ratings per pot were recorded over a three-week period and averaged to obtain a single value for each pot For each herbicide, analysis of variance on injury ratings was performed separately. Fisher's least significant difference (LSD) was used to determine the significance of line mean differences at each herbicide rate using the 95% level of confidence.

mutant W20 = assay: Postemergence herbicide spray test of W4-4 (Table VII-A); conditions: two weeks after treatment
Method: (§2) To investigate this hypothesis, a postemergence herbicide spray test was conducted to compare the reaction of W4-4 to both W20 and wild-type Williams. The applicant was particularly interested in the resistance of W4-4 to herbicide treatments that were injurious to both Williams and W20 in a previous test (Table VII). […] Twenty-four plants each of W4-4, W20, and Williams were planted in separate 10 cm pots and allowed to grow to the second trifoliolate stage. Each pot constituted a single experimental unit receiving a single herbicide treatment. Herbicide treatments (Table VIIA) were applied as described for the first postemergence test and were replicated twice. Control plants were sprayed with the spray carrier solution only (water with 0.25% X77 surfactant). At two weeks after treatment, each plant was rated for % herbicide injury as described in Table VIII. Analysis of variance on injury ratings was performed separately for each herbicide to calculate treatment means and standard errors. Fisher's least significant difference (LSD) was used to determine the significance of line means differences at each herbicide rate using the 95% level of confidence. […]

Mutant W4-4 = assay: as above; conditions: two weeks after treatment
Method: as §2

Williams 82 [1] = assay: as above; conditions: two weeks after treatment
Method: as §2

W20 = assay: Field use rate test (Table VII-B)
mutant line W17 = assay: Test B postemergence cross resistance test; conditions: Glycine max, post-emergence
Text: as §1
(§3) In both postemergence tests, plants were returned to the greenhouse after treatment and provided with ample light, moisture, and nutrients to support healthy plant growth. Two to three ratings per pot were recorded over a three-week period and averaged to obtain a single value for each pot For each herbicide, analysis of variance on injury ratings was performed separately. Fisher's least significant difference (LSD) was used to determine the significance of line mean differences at each herbicide rate using the 95% level of confidence. […]

mutant line W19 = assay: Test B postemergence cross resistance test; conditions: Glycine max, post-emergence
Text: as §1, §3

mutant line W23 = assay: Test B postemergence cross resistance test; conditions: Glycine max, post-emergence
Text: as §1, §3

mutant line W28 = assay: Test B postemergence cross resistance test; conditions: Glycine max, post-emergence
Text: as §1, §3

Williams 82 [2] = assay: Test B postemergence cross resistance test; conditions: Glycine max, post-emergence
Text: as §1, §3

mutant line W4 = assay: Test B postemergence cross resistance test; conditions: Glycine max, post-emergence
Text: as §1, §3

Structure (SMILES): CC(C)C1(C)N=C(c2ncccc2C(=O)O)NC1=O (centres unmarked) [Compound 11, 2-[4,5-dihydro-4-methyl-4-(1-methylethyl)-5-oxo-1H-imidazol-2-yl]-3-pyridinecarboxylic acid, 1-methylethanamine salt]
- mean % injury (W4-4; W4-4, 8 g/ha): 0%
- mean % injury (W4-4; W4-4, 17.5 g/ha): 5%
- mean % injury (W4-4; W4-4, 35 g/ha): 25%
- mean % injury (WM82 (Williams); WM82, 8 g/ha): 50%
- mean % injury (WM82 (Williams); WM82, 17.5 g/ha): 60%
- mean % injury (WM82 (Williams); WM82, 35 g/ha): 75%
- percent crop injury at 16 g/ha (mutant line W20; W20, 16 g/ha postemergence): 44%
- percent crop injury at 64 g/ha (mutant line W20; W20, 64 g/ha postemergence): 61%
- mean % injury (mutant W20; W20, 64 g/ha postemergence): 48%
- mean % injury (mutant W20; W20, 125 g/ha postemergence): 80%
- mean % injury (Mutant W4-4; W4-4, 64 g/ha postemergence): 38%
- mean % injury (Mutant W4-4; W4-4, 125 g/ha postemergence): 53%
- mean % injury (Williams 82 [1]; WM82, 64 g/ha postemergence): 73%
- mean % injury (Williams 82 [1]; WM82, 125 g/ha postemergence): 83%
- mean % injury (W20; W20, 8 g/ha): 20%
- mean % injury (W20; W20, 17.5 g/ha): 30%
- mean % injury (W20; W20, 35 g/ha): 60%
- soybean crop injury (%) at 16 g/ha (mutant line W17; W17, 16 g/ha postemergence): 39%
- soybean crop injury (%) at 64 g/ha (mutant line W17; W17, 64 g/ha postemergence): 61%
- percent soybean crop injury at 16 g/ha (mutant line W19; W19, 16 g/ha postemergence): 41%
- percent soybean crop injury at 64 g/ha (mutant line W19; W19, 64 g/ha postemergence): 60%
- percent soybean injury at 16 g/ha (mutant line W23; W23, 16 g/ha postemergence): 41%
- percent soybean injury at 64 g/ha (mutant line W23; W23, 64 g/ha postemergence): 74%
- mean % injury to soybean at 16 g/ha (mutant line W28; W28, 16 g/ha postemergence): 45%
- mean % injury to soybean at 64 g/ha (mutant line W28; W28, 64 g/ha postemergence): 68%
- soybean crop injury at 16 g/ha (Williams 82 [2]; Wm 82, 16 g/ha postemergence): 49%
- soybean crop injury at 64 g/ha (Williams 82 [2]; Wm 82, 64 g/ha postemergence): 75%
- % crop injury at 16 g/ha (mutant line W4; W4, 16 g/ha postemergence): 39%
- % crop injury at 64 g/ha (mutant line W4; W4, 64 g/ha postemergence): 73%
